Reference: US20210308173A1, “PHARMACEUTICAL COMPOSITION COMPRISING CYCLODEXTRIN COMPLEXES OF ANETHOLE TRITHIONE OR DERIVATIVES THEREOF” (priority 2018, published 2021)
Converted amounts (≈) assume the structure as drawn.

Columns and labels:
[1] = background statement; cited from earlier work
[2] = Optimal SBE-β-CD/AOL molar ratio for solubilization; assay type: physicochemical
Excerpt: Using an optimized AOL/SBE-β-CD molar ratio enabled the Applicant to overcome all the aforementioned shortcomings. Indeed, the obtained formulation can be injected without exceeding the daily cyclodextrin administration threshold, solubilizes AOL without presenting a prohibiting viscosity. The chemical stability of AOL was maintained by such a formulation. […] Without willing to be bound by a theory the complex association (interaction outside the cavity of the cyclodextrin) enhances its solubility without hindering its bioavailability when the formulation is administered to a subject in need thereof.

[3] = Incompatibility of AOL with lipid carriers (visual examination); assay type: physicochemical
Protocol: 100 mg of AOL were successfully dissolved in 20 mL of polyglyceryl-3 dioleate (Plurol® Oleique). A homogenous vividly orange colored solution was obtained with less than 5 minutes of magnetic stirring.
The obtained solution turned greed with obvious aspect and odor having turned rancid.
100 mg of AOL were successfully dissolved in 20 mL of 2-[2,3-bis(2-hydroxyethoxy)propoxy]ethanol; hexadecanoic acid; octadecanoic acid (Labrafil® M1944). A homogenous orange colored solution was obtained with less than 5 minutes of magnetic stirring.
The obtained solution turned dark green.
A new solution of 5 mg/mL AOL in Labrafil® M1944 and stocked in a hermetically closed recipient.

[4] = Cyclodextrin solubilization screening of AOL; assay type: physicochemical; conditions: for CD/AOL molar ratio RM / CD/AOL weight ratio Rm: 25° C.; for solubility at 3 h / solubility at 20 h: 25 °C, thermodynamic from solid
Protocol: This assay evaluated the potential of different cyclodextrins to solubilize AOL. A solubilization screening is carried out with the four cyclodextrins (CD) selected from α-CD, γ-CD, HP-β-CD and SBE-β-CD.
Aqueous solutions containing 100 mM of cyclodextrin are prepared in pure water. An excess of AOL (approximately 5 mg/mL) is suspended in 2 mL of each of these cyclodextrin solutions. Each duplicate sample is shaken at 25° C. for 3 hours and 20 hours (vortex to 1400 rpm). Each sample is centrifuged (12,500 g) then filtered through a 0.45 μm membrane. The solubility of the AOL is quantified by HPLC as previously described (Example 2).

[5] = Co-solvent addition: AOL solubility; assay type: physicochemical; conditions: for solubility at 4 h: aqueous with cosolvent or surfactant or cyclodextrin, thermodynamic from solid
Protocol: SBE-β-CD compatible excipients, namely polyethylene glycol and polysorbate (Tween), were evaluated for their AOL aqueous solubilizing power. Screening was carried out in same conditions as that of solubilization screening by cyclodextrins (see Example 3).
Briefly, 20% (w/w) solutions of each excipient were prepared. An excess of AOL was added and the solutions were analyzed by HPLC after 4 hours of stirring.
The effect of the combination of SBE-β-CD and Tween 80 was measured in a comparative assay by solubilizing AOL in: (A) Tween 80, 10% (w/w); (B) SBE-β-CD 10% (w/w) (C) Tween 80 and SBE-β-CD 10% (w/w) each; (D) Tween 80 20% (w/w) (E) SBE-β-CD 20% (w/w); and (F) Tween 80 and SBE-β-CD 20% (w/w) each.
Further assays, resumed in Tables 7 and 8, confirmed that Tween 80/SBE-β-CD is a promising excipient mixture for the solubilization of AOL.

SBE-β-CD/AOL molar ratio at which optimal solubilization was observed [2]: > 29
visual examination of the solution ([3]; 5 mg/mL in Labrafil M1944, hermetically closed recipient, 24 hours at room temperature): same stability problem
magnetic stirring time to homogenous solution ([3]; 100 mg in 20 mL Labrafil M1944): less than 5 minutes
magnetic stirring time to homogenous solution ([3]; 100 mg in 20 mL polyglyceryl-3 dioleate (Plurol Oleique)): less than 5 minutes
visual examination of the solution ([3]; Labrafil M1944, after 24 hours at room temperature): intense color change
visual examination of the solution ([3]; Plurol Oleique, after 24 hours at room temperature): intense color change
stability within lipid carriers ([3]; period of 24 hours, visual observation): unstable
CD/AOL molar ratio RM ([4]; HP-β-CD 100 mM, stirring 3 h): 218
CD/AOL weight ratio Rm ([4]; HP-β-CD 100 mM, stirring 3 h): 1270
CD/AOL molar ratio RM ([4]; HP-β-CD 100 mM, stirring 20 h): 252
CD/AOL weight ratio Rm ([4]; HP-β-CD 100 mM, stirring 20 h): 1465
CD/AOL molar ratio RM ([4]; SBE-β-CD 100 mM, stirring 3 h): 169
CD/AOL weight ratio Rm ([4]; SBE-β-CD 100 mM, stirring 3 h): 1575
CD/AOL molar ratio RM ([4]; SBE-β-CD 100 mM, stirring 20 h): 150
CD/AOL weight ratio Rm ([4]; SBE-β-CD 100 mM, stirring 20 h): 1395
solubility at 3 h ([4]; aqueous cyclodextrin solution, aqueous with cosolvent or surfactant or cyclodextrin, HP-β-CD 100 mM, stirring 3 h): 110 µg/mL (≈ 458 µM)
solubility at 20 h ([4]; aqueous cyclodextrin solution, aqueous with cosolvent or surfactant or cyclodextrin, HP-β-CD 100 mM, stirring 20 h): 95.5 µg/mL (≈ 397 µM)
solubility at 3 h ([4]; aqueous cyclodextrin solution, aqueous with cosolvent or surfactant or cyclodextrin, SBE-β-CD 100 mM, stirring 3 h): 142 µg/mL (≈ 592 µM)
solubility at 20 h ([4]; aqueous cyclodextrin solution, aqueous with cosolvent or surfactant or cyclodextrin, SBE-β-CD 100 mM, stirring 20 h): 161 µg/mL (≈ 669 µM)
solubility at 3 h ([4]; aqueous cyclodextrin solution, aqueous with cosolvent or surfactant or cyclodextrin, α-CD 100 mM, stirring 3 h): 8.83 µg/mL (≈ 36.7 µM)
solubility at 20 h ([4]; aqueous cyclodextrin solution, aqueous with cosolvent or surfactant or cyclodextrin, α-CD 100 mM, stirring 20 h): 13.5 µg/mL (≈ 56.2 µM)
solubility at 3 h ([4]; aqueous cyclodextrin solution, aqueous with cosolvent or surfactant or cyclodextrin, γ-CD 100 mM, stirring 3 h): 2.86 µg/mL (≈ 11.9 µM)
solubility at 20 h ([4]; aqueous cyclodextrin solution, aqueous with cosolvent or surfactant or cyclodextrin, γ-CD 100 mM, stirring 20 h): 1.67 µg/mL (≈ 6.95 µM)
solubility at 3 h ([4]; water, None-H2O, stirring 3 h): 0.22 µg/mL (≈ 0.915 µM)
solubility at 20 h ([4]; water, None-H2O, stirring 20 h): 0.16 µg/mL (≈ 0.666 µM)
CD/AOL molar ratio RM ([4]; α-CD 100 mM, stirring 3 h): 2721
CD/AOL weight ratio Rm ([4]; α-CD 100 mM, stirring 3 h): 11010
CD/AOL molar ratio RM ([4]; α-CD 100 mM, stirring 20 h): 1779
CD/AOL weight ratio Rm ([4]; α-CD 100 mM, stirring 20 h): 7198
CD/AOL molar ratio RM ([4]; γ-CD 100 mM, stirring 3 h): 8399
CD/AOL weight ratio Rm ([4]; γ-CD 100 mM, stirring 3 h): 45316
CD/AOL molar ratio RM ([4]; γ-CD 100 mM, stirring 20 h): 14405
CD/AOL weight ratio Rm ([4]; γ-CD 100 mM, stirring 20 h): 77723
chemical stability on storage ([5]; Tween 80 at 20% (w/w) aqueous media): chemical stability issues
solubility at 4 h ([5]; aqueous HP-β-CD solution, HP-β-CD 20% (w/w), Cremophor 10% (w/w)): 545 µg/mL
solubility at 4 h ([5]; aqueous HP-β-CD solution, HP-β-CD 20% (w/w), Cremophor 20% (w/w)): 814 µg/mL
solubility at 4 h ([5]; aqueous HP-β-CD solution, HP-β-CD 20% (w/w), PVP 12PF 0.5% (w/w)): 296 µg/mL
solubility at 4 h ([5]; aqueous HP-β-CD solution, HP-β-CD 20% (w/w), PVP 12PF 2.0% (w/w)): 291 µg/mL
solubility at 4 h ([5]; aqueous HP-β-CD solution, HP-β-CD 20% (w/w), Tween 80 2% (w/w)): 329 µg/mL
solubility at 4 h ([5]; aqueous HP-β-CD solution, HP-β-CD 20% (w/w), Tween 80 10% (w/w)): 396 µg/mL
solubility at 4 h ([5]; aqueous HP-β-CD solution, HP-β-CD 20% (w/w), Tween 80 20% (w/w)): 660 µg/mL
solubility at 4 h ([5]; aqueous HP-β-CD solution, HP-β-CD 20% (w/w), co-solvent 0% (w/w)): 283 µg/mL
solubility at 4 h ([5]; aqueous HP-β-CD solution, HP-β-CD 30% (w/w), Cremophor 10% (w/w)): 642 µg/mL
solubility at 4 h ([5]; aqueous HP-β-CD solution, HP-β-CD 30% (w/w), PVP 12PF 0.5% (w/w)): 532 µg/mL
solubility at 4 h ([5]; aqueous HP-β-CD solution, HP-β-CD 30% (w/w), PVP 12PF 2.0% (w/w)): 517 µg/mL
solubility at 4 h ([5]; aqueous HP-β-CD solution, HP-β-CD 30% (w/w), Tween 80 2% (w/w)): 426 µg/mL
solubility at 4 h ([5]; aqueous HP-β-CD solution, HP-β-CD 30% (w/w), Tween 80 10% (w/w)): 439 µg/mL
solubility at 4 h ([5]; aqueous HP-β-CD solution, HP-β-CD 30% (w/w), Tween 80 20% (w/w)): 1680 µg/mL
solubility at 4 h ([5]; aqueous HP-β-CD solution, HP-β-CD 30% (w/w), co-solvent 0% (w/w)): 540 µg/mL
solubility at 4 h ([5]; aqueous SBE-β-CD solution, SBE-β-CD 20% (w/w), Cremophor 10% (w/w)): 644 µg/mL
solubility at 4 h ([5]; aqueous SBE-β-CD solution, SBE-β-CD 20% (w/w), PVP 12PF 0.5% (w/w)): 389 µg/mL
solubility at 4 h ([5]; aqueous SBE-β-CD solution, SBE-β-CD 20% (w/w), PVP 12PF 2.0% (w/w)): 371 µg/mL
solubility at 4 h ([5]; aqueous SBE-β-CD solution, SBE-β-CD 20% (w/w), Tween 80 2% (w/w)): 374 µg/mL
solubility at 4 h ([5]; aqueous SBE-β-CD solution, SBE-β-CD 20% (w/w), Tween 80 10% (w/w)): 587 µg/mL
solubility at 4 h ([5]; aqueous SBE-β-CD solution, SBE-β-CD 20% (w/w), Tween 80 20% (w/w)): 829 µg/mL
solubility at 4 h ([5]; aqueous SBE-β-CD solution, SBE-β-CD 20% (w/w), co-solvent 0% (w/w)): 375 µg/mL
solubility at 4 h ([5]; aqueous SBE-β-CD solution, SBE-β-CD 30% (w/w), Cremophor 10% (w/w)): 814 µg/mL
solubility at 4 h ([5]; aqueous SBE-β-CD solution, SBE-β-CD 30% (w/w), PVP 12PF 0.5% (w/w)): 668 µg/mL
solubility at 4 h ([5]; aqueous SBE-β-CD solution, SBE-β-CD 30% (w/w), PVP 12PF 2.0% (w/w)): 670 µg/mL
solubility at 4 h ([5]; aqueous SBE-β-CD solution, SBE-β-CD 30% (w/w), Tween 80 2% (w/w)): 630 µg/mL
solubility at 4 h ([5]; aqueous SBE-β-CD solution, SBE-β-CD 30% (w/w), Tween 80 10% (w/w)): 616 µg/mL
solubility at 4 h ([5]; aqueous SBE-β-CD solution, SBE-β-CD 30% (w/w), Tween 80 20% (w/w)): 1280 µg/mL
solubility at 4 h ([5]; aqueous SBE-β-CD solution, SBE-β-CD 30% (w/w), co-solvent 0% (w/w)): 685 µg/mL
influence of PVP 12PF on solubility ([5]; cyclodextrin media): did not had any influence
solubility in Tween 80 compared with SBE-β-CD solutions ([5]; same temperature and concentration of excipient): higher solubility in Tween 80
Compound: COc1ccc(-c2cc(=S)ss2)cc1 [AOL, 5-(4-methoxyphenyl)-3H-1,2-dithiole-3-thione]
intrinsic aqueous solubility [1]: less than 0.3 mg/L
